Patent US20160349268A1, “STEPWISE ASSEMBLED CAPTURE COMPOUNDS COMPRISING A CLEAVABLE FUNCTION AND METHOD FOR ISOLATING AND/OR CHARACTERIZING BIOMOLECULES OR BIOMOLECULE FRAGMENTS, IN PARTICULAR PROTEINS OR PROTEIN FRAGMENTS, OF COMPLEX MIXTURES” (CAPROTEC BIOANALYTICS GMBH, priority 2014, published 2016)

How the values were obtained:
SAH binding protein = target: T1, SAH binding protein (Escherichia coli, UniProt P0AF12); assay: Click-and-cleave with proteins/lysate, SDS-PAGE/silver stain; design: species or system E. coli K-12 strain; settings: cleavage conditions (10 mM 2-nitrobenzhydrazide and 10 mM HCl in 50% acetonitrile)
T1 construct: prepared from the DH5a derivative of the E. coli K-12 strain; endogenous in cells; host or cells: E. coli K-12 DH5a lysate
Experimental: Compound 11 (final concentration 2.5 μM) was incubated for 5 min at 4° C. with a lysate (final total protein concentration 5 mg/ml) prepared from the DH5a derivative of the E. coli K-12 strain in phosphate buffered saline (final volume 100 μl). In a so called competition control (designated “C” as opposed to “A” for CCMS assay without the competitor SAH) carried out side-by-side, S-adenosyl-L-homocysteine (SAH) (final concentration 250 μM) was added to the lysate before compound 11 to compete for the binding of the SAH selectivity function of 11 to SAH binding proteins such as S-adenosyl-L-methionine (SAM) dependent methyltransferases. […]
The samples “A” and “C” were incubated with 250 μg 13 (CPT601, CCB 4, trans-cyclooctene (TCO) modified controlled pore glass (CPG). CPG-TCO beads), respectively, over night at 4° C. with rotation to keep the CPG beads (13) in suspension. […] Formed by the TCO-tetrazine click reaction, the fluorescent 18-11-protein conjugates were detected as in-gel fluorescent bands after SDS-PAGE. In the samples taken after incubation with 13, less in-gel fluorescent bands (18-11-protein conjugates) were detected than in the samples taken before incubation with 13, showing that 11-protein conjugates had reacted with 13 to form 13-11-protein conjugates. […]

[1] = target: T2, 5-methylthioadenosine/S-adenosylhomocysteine nucleosidase (Escherichia coli, UniProt P0AF12); assay: Click-and-cleave with proteins/lysate, nanoLC/MS2 protein quantification of gel slices; assay type: binding, E. coli K-12 strain; settings: compound 2.5 μM, gel slice around 25 kDa
T2 construct: prepared from the DH5a derivative of the E. coli K-12 strain; endogenous in cells; host or cells: E. coli K-12 DH5a lysate
Experimental: (§1) Compound 11 (final concentration 2.5 μM) was incubated for 5 min at 4° C. with a lysate (final total protein concentration 5 mg/ml) prepared from the DH5a derivative of the E. coli K-12 strain in phosphate buffered saline (final volume 100 μl). In a so called competition control (designated “C” as opposed to “A” for CCMS assay without the competitor SAH) carried out side-by-side, S-adenosyl-L-homocysteine (SAH) (final concentration 250 μM) was added to the lysate before compound 11 to compete for the binding of the SAH selectivity function of 11 to SAH binding proteins such as S-adenosyl-L-methionine (SAM) dependent methyltransferases.
(§2) The samples were irradiated with UV light (λmax=310 nm) for 5 min in the caproBox (caprotec bioanalytics, Berlin, Germany) at about 4° C. to activate the reactivity function of 11 and form the covalent cross-link to proteins leading to 11-protein conjugates. Due to the SAH selectivity function in 11. SAH binding proteins will be selectively cross-linked to 11 and this selective crosslink will be diminished or inhibited in the competition control “C”.
(§3) The samples “A” and “C” were incubated with 250 μg 13 (CPT601, CCB 4, trans-cyclooctene (TCO) modified controlled pore glass (CPG). CPG-TCO beads), respectively, over night at 4° C. with rotation to keep the CPG beads (13) in suspension. During this time the 11-protein conjugates covalently bound to 13 by the TCO-tetrazine click reaction to form 13-11-protein conjugates. Selective binding of 11-protein conjugates to 13 was shown by taking 5 μl samples of “A” and “C”, respectively, before and after incubation with 13 and incubating these samples with 18 (final concentration 10 μM, CPT533. Probe 3, TCO-TAMRA) for 15 min at room temperature. Formed by the TCO-tetrazine click reaction, the fluorescent 18-11-protein conjugates were detected as in-gel fluorescent bands after SDS-PAGE. In the samples taken after incubation with 13, less in-gel fluorescent bands (18-11-protein conjugates) were detected than in the samples taken before incubation with 13, showing that 11-protein conjugates had reacted with 13 to form 13-11-protein conjugates.
(§4) The supernating solution was separated from the 13-11-protein conjugates after centrifugation in a table top centrifuge and the CPG beads containing the 13-11-protein conjugates were washed by re-suspending in fresh solution and removal of the supernatant after centrifugation (three times with 200 μl 4×SL Buffer, three times with 200 μl 50% acetonitrile).
(§5) The washed CPG beads containing the 13-11-protein conjugates were divided into two aliquots, respectively, for “A” and “C”. One aliquot was incubated with 10 mM 2-nitrobenzhydrazide and 10 mM HCl in 10 μl 50% acetonitrile (final concentrations and volume) at room temperature for 1 h while keeping the CPG beads containing the 13-11-protein conjugates in suspension by rotation yielding proteins with attached cleaved off photo-reacted reactivity function. As a control, the second aliquot of the CPG beads containing the 13-11-protein conjugates was treated the same way side-by-side but without 2-nitrobenzhydrazide and HCl. The proteins in the solutions supernating (cleaved) the CPG beads were analyzed by SDS-PAGE (4-20% Tris-Glycine gradient gels, 15 well, 1.0 mm; Novex® life Technologes® Ref. EC60255BOX, 25 min run time at 300 V) followed by silver staining (ProteoSilver Silver Stain Kit, Sigma).
(§6) Gel slices were cut out around 25 kDa in each gel lane corresponding to the molecular weight (height) of the specific gel lane marked by the red arrow in FIG. 13. The gel slices were treated with trypsin and the resulting peptides were analyzed by nanoLC/MS^2 (LTQ Orbitrap) followed by automatic software based protein identification and quantification (MaxQuant software package). […]

[2] = target: T3, Ribosomal RNA small subunit methyltransferase G (Escherichia coli, UniProt P0A6U5); assay: as above; assay type: binding, E. coli K-12 strain; settings: Cleavage, compound 2.5 μM, gel slice around 25 kDa
T3 construct: prepared from the DH5a derivative of the E. coli K-12 strain; endogenous in cells; host or cells: E. coli K-12 DH5a lysate
Experimental: as §1, §2, §3, §4, §5, §6

[3] = target: T4, tRNA (cmo5U34)-methyltransferase (Escherichia coli, UniProt P76290); assay: as above; assay type: binding, E. coli K-12 strain; settings: Cleavage, compound 2.5 μM, gel slice around 25 kDa
T4 construct: prepared from the DH5a derivative of the E. coli K-12 strain; endogenous in cells; host or cells: E. coli K-12 DH5a lysate
Experimental: as §1, §2, §3, §4, §5, §6

[4] = target: T5, tRNA (guanine-N(7)-)-methyltransferase (Escherichia coli, UniProt P0A8I5); assay: as above; assay type: binding, E. coli K-12 strain; settings: A (without competitor SAH), Cleavage; compound 2.5 μM, gel slice around 25 kDa
T5 construct: prepared from the DH5a derivative of the E. coli K-12 strain; endogenous in cells; host or cells: E. coli K-12 DH5a lysate
Experimental: as §1, §2, §3, §4, §5, §6

[5] = Click-and-cleave without proteins/lysate (release of cleaved off photo-reacted reactivity function 15, LC-MS); assay type: physicochemical; settings: for Area/a.u. of LC-MS EIC 249.10 peak at 1.75 min (cleaved off photo-reacted reactivity function 15): starting material bound to CPG-TCO beads 13
Experimental: A solution of 100 μL 2.5 μM 11 (CPT727, Capture Compound bearing tetrazine as sorting function and a chemically cleavable photo-reactivity function) in phosphate buffered saline (PBS) was irradiated with UV light (λmax=310 nm) for 5 min at 4° C. in the caproBox (caprotec bioanalytics, Berlin. Germany) to activate the reactivity function yielding 12 (Scheme 12).
The resulting solution was incubated with 2 mg 13 (CPT601, CCB 4, trans-cyclooctene (TCO) modified controlled pore glass (CPG), CPG-TCO beads) over night at 4° C. to covalently bind compound 12 to 13 by the TCO-tetrazine click reaction yielding 14 (Scheme 12). During this time, 13 was kept in suspension by rotation.
Unbound 12 was removed by separating the supernating solution from 14 after centrifugation in a table top centrifuge and washing the solid 14 by re-suspending in fresh solution and removal of the supernatant after centrifugation (three times with 200 μl SL Buffer (50 mM Tris/HCl, 320 mM beta-mercaptoethanol, 2.5% sodium dodecylsulfate, 0.05% bromophenol blue, 10% glycerol, pH 6.8), three times with 200 μl 50% acetonitrile).
The washed 14 was divided into two aliquots. One aliquot was incubated with 10 mM 2-nitrobenzhydrazide and 10 mM HCl in 10 μl 50% acetonitrile (final concentrations and volume) at room temperature for 1 h while keeping 14 in suspension by rotation yielding the cleaved off photo-reacted reactivity function 15 (Scheme 12). As a control, the second aliquot of 14 was treated the same way side-by-side but without 2-nitrobenzhydrazide and HCl. The solutions supernating (cleaved) 14 were analyzed by LC-MS.
The same procedure was performed side-by-side using 16 (CPT634, Capture Compound bearing tetrazine as sorting function and non-cleavable photo-reactivity function) instead of 11.

[6] = A (without competitor SAH), Cleavage (10 mM 2-nitrobenzhydrazide, 10 mM HCl)
[7] = A (without competitor SAH), no Cleavage
[8] = C (competition control, SAH 250 μM), Cleavage
[9] = C (competition control, SAH 250 μM), no Cleavage
[10] = C (competition control, SAH 250 μM)

T3 sequence (P0A6U5 whole entry): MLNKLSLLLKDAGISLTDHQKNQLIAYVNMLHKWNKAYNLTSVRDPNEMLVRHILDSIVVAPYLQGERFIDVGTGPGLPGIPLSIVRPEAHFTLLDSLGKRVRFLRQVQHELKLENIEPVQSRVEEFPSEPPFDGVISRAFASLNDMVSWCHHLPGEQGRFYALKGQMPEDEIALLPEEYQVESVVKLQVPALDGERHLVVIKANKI
T2 sequence (P0AF12 whole entry): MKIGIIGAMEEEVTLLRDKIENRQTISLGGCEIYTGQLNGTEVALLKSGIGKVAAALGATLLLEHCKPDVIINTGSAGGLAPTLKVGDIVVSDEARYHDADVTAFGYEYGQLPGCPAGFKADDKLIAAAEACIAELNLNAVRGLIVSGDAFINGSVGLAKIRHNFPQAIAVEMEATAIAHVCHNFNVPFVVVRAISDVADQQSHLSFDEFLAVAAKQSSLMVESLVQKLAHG
T4 sequence (P76290 whole entry): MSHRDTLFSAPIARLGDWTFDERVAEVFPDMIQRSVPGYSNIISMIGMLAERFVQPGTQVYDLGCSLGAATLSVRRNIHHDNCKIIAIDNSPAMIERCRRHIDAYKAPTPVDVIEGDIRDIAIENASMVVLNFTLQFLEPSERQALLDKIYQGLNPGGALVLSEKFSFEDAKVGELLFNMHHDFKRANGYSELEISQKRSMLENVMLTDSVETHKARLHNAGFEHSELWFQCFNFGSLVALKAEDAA
T1 sequence (P0AF12 whole entry): as the sequence (P0AF12 whole entry) above
T5 sequence (P0A8I5 whole entry): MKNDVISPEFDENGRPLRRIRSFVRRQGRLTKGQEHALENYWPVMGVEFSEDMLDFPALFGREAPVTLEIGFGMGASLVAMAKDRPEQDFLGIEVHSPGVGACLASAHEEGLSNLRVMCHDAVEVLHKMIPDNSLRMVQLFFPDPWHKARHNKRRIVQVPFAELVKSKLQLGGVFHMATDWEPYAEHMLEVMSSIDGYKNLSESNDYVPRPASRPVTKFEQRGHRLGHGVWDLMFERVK

Cc1nnc(-c2ccc(CN(CC(=O)NCCCCNc3ncnc4c3ncn4C3OC(CSCC[C@H](N)C(=O)O)C(O)C3O)C(=O)c3ccc(C4(C(F)(F)F)N=N4)cc3)cc2)nn1 (some centres unmarked) [Compound 16]
gel band corresponding to a SAH binding protein after SDS-PAGE/silver stain (SAH binding protein): absent
Normalized protein intensities [1, 6]: 7.2E+06
Normalized protein intensities [1, 7]: 1.9E+05
Normalized protein intensities [1, 8]: 7.9E+05
Normalized protein intensities [1, 9]: 2.6E+05
Normalized protein intensities ([2]; A (without competitor SAH)): 1.5E+05
Normalized protein intensities [2, 10]: 7.5E+04

Cc1nnc(-c2ccc(CN(CC(=O)NCCCCNc3ncnc4c3ncn4C3OC(CSCC[C@H](N)C(=O)O)C(O)C3O)C(=O)CC/C=N/N(C)C(=O)c3ccc(C4(C(F)(F)F)N=N4)cc3)cc2)nn1 (stereo partly drawn) [Compound 11, (2S)-2-amino-4-((3,4-dihydroxy-5-(6-(4-(2-((E)-N-(4-(6-methyl-1,2,4,5-tetrazin-3-yl)benzyl)-4-(2-methyl-2-(4-(3-(trifluoromethyl)-3H-diazirin-3-yl)benzoyl)hydrazono)butanamido)acetamido)butylamino)-9H-purin-9-yl)tetrahydrofuran-2-yl)methylthio)butanoic acid]
gel band corresponding to a SAH binding protein after SDS-PAGE/silver stain (SAH binding protein): present
Normalized protein intensities ([3]; A (without competitor SAH)): 1.6E+06
Normalized protein intensities [3, 10]: 2.9E+05
Normalized protein intensities [4]: 4.0E+05
Normalized protein intensities [1, 6]: 9.0E+07
Normalized protein intensities [1, 7]: 4.0E+06
Normalized protein intensities [1, 8]: 2.2E+06
Normalized protein intensities [1, 9]: 1.0E+06
Normalized protein intensities ([2]; A (without competitor SAH)): 7.8E+05
Normalized protein intensities [2, 10]: 3.6E+05
fold higher intensity of 15 with 2-nitrobenzhydrazide and HCl than without ([5]; 10 mM 2-nitrobenzhydrazide, 10 mM HCl vs 50% acetonitrile only): more than 50 fold
Area/a.u. of LC-MS EIC 249.10 peak at 1.75 min (cleaved off photo-reacted reactivity function 15) ([5]; cleavage condition 10 mM 2-nitrobenzhydrazide, 10 mM HCl in 50% acetonitrile): 26722302 a.u.
Area/a.u. of LC-MS EIC 249.10 peak at 1.75 min (cleaved off photo-reacted reactivity function 15) ([5]; cleavage condition 50% acetonitrile): 491625 a.u.
